Patent US10947202B2, “Sodium ion channel inhibitors and pharmaceutically acceptable salts and polymorphs thereof and uses thereof” (SHANGHAI HAIYAN PHARMACEUTICAL TECHNOLOGY CO., LTD., priority 2017, dated 2021)
≈ marks a conversion by molar mass, not a printed value.

How the values were obtained:
Assay type in all cases: physicochemical
[1] = Hygroscopicity experiment (DVS)
Text: The Dynamic Vapor Sorption (DVS) curve was acquired on the DVS Intrinsic of Surface Measurement Systems.
The DVS results for crystal forms A, D, E-3 and F are shown in FIG. 1E, FIG. 4F, FIG. 7E and FIG. 8E, respectively.

[2] = Crystal form stability on shaking in solvent or heating (XRPD); details: heated to 150° C.
Procedure: The reaction solution in the step 4 of Example 1 was poured into water, extracted with ethyl acetate, dried and concentrated, ethanol was added to dissolve and the solution was evaporated, 1N hydrochloric acid and ethyl acetate were added and stirred for 1-2 h, filtered, a solid product which was the crystal form III of free base was obtained, the X-ray powder diffraction pattern is shown in FIG. 11A (the 2θ angle has been marked), the DSC/TGA/DVS patterns are shown in FIGS. 11B, 11C and 11D. According to the DSC pattern, there is an inflection point around 100° C., and the sample has a melting absorption peak at 181.9° C. […] The sample was shaken in ACE and MeOH at 50° C. for 1 day, and the crystal form was unchanged.
The reaction solution in the step 4 of Example 1 was poured into water, extracted with ethyl acetate, dried and concentrated to retain a small amount of ethyl acetate, 1N hydrochloric acid was added and stirred for 1 h, filtered, the filter cake was washed with ethanol and then filtered to obtain a solid product which was the crystal form IV of free base was obtained. The X-ray powder diffraction pattern is shown in FIG. 12A (the […] has been marked), the DSC/TGA/DVS patterns are shown in FIGS. 12B, 12C and 12D. […] The sample was shaken in ACE at 50° C. for 1 day, and the crystal form was unchanged. […]

[3] = Solubility experiment; details: for Solubility (mg/mL) 0.1M HCl / Solubility (mg/mL) H2O: room temperature; for Solubility (mg/mL) pH6.8: buffer pH 6.8, room temperature; for Solubility (mg/mL) H2O: water
Procedure: The solubility of crystal forms A, D, E-1, E-3, F and free base sample in buffer of 0.1M HCl, pH 4.5, pH 6.8 and water was tested at room temperature. In the test, the standard curves of free base sample and five crystal forms were plotted. Subsequently, 6 mg of API and five crystal form samples were weighed, respectively, and 2 ml of the solvent was added, the mixture was shaken at room temperature for 4 h, then ultrasonicated for 30 min, centrifuged, and the supernatant was taken out, filtered through a 0.45 μm filter and injected, and the solubility was measured, the results are shown in Table 28 (concentration is in mg/ml).

[4] = Stability experiment (storage of crystal forms, HPLC)
Procedure: High performance liquid chromatography spectrum was acquired on an Agilent 1260 HPLC, the specific instrument and test parameters are shown in the table 18 below.
Another set of samples were sealed at 5° C. and kept as a control at the same time. […]

[5] = buffer pH 4.5, room temperature
[6] = 5° C. 0 d, — = below detection limit
[7] = 40° C. 75% RH 14 d, — = below detection limit
[8] = 60° C. 7 d, — = below detection limit
[9] = 60° C. 21 d, — = below detection limit

Row | SMILES | hygroscopicity (DVS curve) [1] | Solubility (mg/mL) 0.1M HCl [3] [mg/mL] | Solubility (mg/mL) pH4.5 [3, 5] [mg/mL] | Solubility (mg/mL) pH6.8 [3] [mg/mL] | Solubility (mg/mL) H2O [3] [mg/mL] | RRT (%) 0.86 ([4]; 5° C. 0 d) [%] | RRT (%) 1.00 ([4]; 5° C. 0 d) [%] | RRT (%) 1.05 ([4]; 5° C. 0 d) [%] | Total impurities (%) ([4]; 5° C. 0 d) | Content (%) ([4]; 40° C. 75% RH 14 d) | RRT (%) 1.00 ([4]; 40° C. 75% RH 14 d) [%] | RRT (%) 1.05 ([4]; 40° C. 75% RH 14 d) [%] | Total impurities (%) ([4]; 40° C. 75% RH 14 d) | Content (%) ([4]; 60° C. 7 d) | RRT (%) 0.86 ([4]; 60° C. 7 d) [%] | RRT (%) 1.00 ([4]; 60° C. 7 d) [%] | RRT (%) 1.05 ([4]; 60° C. 7 d) [%] | Total impurities (%) ([4]; 60° C. 7 d) | Content (%) ([4]; 60° C. 21 d) | RRT (%) 1.00 ([4]; 60° C. 21 d) [%] | other results
1 | Cc1cc(N2CCN(Cc3cc(F)c(C(=O)NS(=O)(=O)C4CC4)cc3Cl)CC2)ccc1Cl [crystal form V, 5-chloro-4-((4-(4-chloro-3-methylphenyl)piperazin-1-yl)methyl)-N-(cyclopropylsulfonyl)-2-fluorobenzamide] | slightly hygroscopic | – | – | – | – | – | – | – | – | – | – | – | – | – | – | – | – | – | – | – | crystal form after heating [2]: converted into crystal form I
2 | Cc1cc(N2CCN(Cc3cc(F)c(C(=O)NS(=O)(=O)C4CC4)cc3Cl)CC2)ccc1Cl [crystal form E-1, 5-chloro-4-((4-(4-chloro-3-methylphenyl)piperazin-1-yl)methyl)-N-(cyclopropylsulfonyl)-2-fluorobenzamide] | – | 0.019 (≈ 38 µM) | 0.002 | 0.035 | >2.669 | – | – | – | – | – | – | – | – | – | – | – | – | – | – | – | –
3 | Cc1cc(N2CCN(Cc3cc(F)c(C(=O)NS(=O)(=O)C4CC4)cc3Cl)CC2)ccc1Cl [crystal form D, 5-chloro-4-((4-(4-chloro-3-methylphenyl)piperazin-1-yl)methyl)-N-(cyclopropylsulfonyl)-2-fluorobenzamide] | almost no hygroscopicity | 0.018 (≈ 36 µM) | 0.002 | 0.016 | 0.005 (≈ 9.99 µM) | 0.03 | 99.90 | 0.03 | 0.11 | 100.2 | 99.90 | 0.03 | 0.09 | 98.9 | 0.03 | 99.90 | 0.03 | 0.11 | 99.1 | 99.91 | moisture absorbed (DVS) ([1]; at 95% RH): 0.07%; RRT (%) 0.79 [4, 6]: 0.04%; RRT (%) 0.79 [4, 7]: 0.04%; RRT (%) 0.88 [4, 7]: 0.02%; RRT (%) 0.79 [4, 8]: 0.04%; RRT (%) 1.05 ([4]; 60° C. 21 d): 0.03%; Total impurities (%) ([4]; 60° C. 21 d): 0.09%; RRT (%) 0.79 [4, 9]: 0.04%; RRT (%) 0.88 [4, 9]: 0.02%
4 | Cc1cc(N2CCN(Cc3cc(F)c(C(=O)NS(=O)(=O)C4CC4)cc3Cl)CC2)ccc1Cl [crystal form A, 5-chloro-4-((4-(4-chloro-3-methylphenyl)piperazin-1-yl)methyl)-N-(cyclopropylsulfonyl)-2-fluorobenzamide] | slightly hygroscopic | 0.011 (≈ 22 µM) | 0.001 | 0.01 | 0.005 (≈ 9.99 µM) | 0.05 | 99.84 | 0.04 | 0.16 | 99.8 | 99.83 | 0.02 | 0.17 | 98.6 | 0.05 | 99.84 | 0.02 | 0.16 | 97.6 | 99.82 | moisture absorbed (DVS) ([1]; at 95% RH): 0.4%; RRT (%) 0.79 [4, 6]: 0.07%; RRT (%) 0.79 [4, 7]: 0.07%; RRT (%) 0.88 [4, 7]: 0.04%; RRT (%) 0.79 [4, 8]: 0.08%; RRT (%) 1.05 ([4]; 60° C. 21 d): 0.03%; Total impurities (%) ([4]; 60° C. 21 d): 0.18%; RRT (%) 0.79 [4, 9]: 0.07%; RRT (%) 0.86 [4, 9]: 0.02%; RRT (%) 0.88 [4, 9]: 0.05%
5 | Cc1cc(N2CCN(Cc3cc(F)c(C(=O)NS(=O)(=O)C4CC4)cc3Cl)CC2)ccc1Cl [crystal form II, 5-chloro-4-((4-(4-chloro-3-methylphenyl)piperazin-1-yl)methyl)-N-(cyclopropylsulfonyl)-2-fluorobenzamide] | hygroscopic | – | – | – | – | – | – | – | – | – | – | – | – | – | – | – | – | – | – | – | –
6 | Cc1cc(N2CCN(Cc3cc(F)c(C(=O)NS(=O)(=O)C4CC4)cc3Cl)CC2)ccc1Cl [crystal form F, 5-chloro-4-((4-(4-chloro-3-methylphenyl)piperazin-1-yl)methyl)-N-(cyclopropylsulfonyl)-2-fluorobenzamide] | has hygroscopicity | 0.017 (≈ 34 µM) | 0.002 | 0.050 | >3.154 | 0.05 | 99.86 | 0.03 | 0.14 | 98.4 | 99.90 | 0.04 | 0.10 | 99.7 | 0.03 | 99.87 | 0.04 | 0.13 | 101.0 | 99.80 | moisture absorbed (DVS) ([1]; when RH is 85%): 4%; RRT (%) 0.79 [4, 6]: 0.06%; RRT (%) 0.79 [4, 7]: 0.04%; RRT (%) 0.79 [4, 8]: 0.06%; RRT (%) 1.05 ([4]; 60° C. 21 d): 0.03%; Total impurities (%) ([4]; 60° C. 21 d): 0.20%; RRT (%) 0.79 [4, 9]: 0.05%; RRT (%) 0.86 [4, 9]: 0.03%; RRT (%) 0.88 [4, 9]: 0.02%
7 | Cc1cc(N2CCN(Cc3cc(F)c(C(=O)NS(=O)(=O)C4CC4)cc3Cl)CC2)ccc1Cl [crystal form E-3, 5-chloro-4-((4-(4-chloro-3-methylphenyl)piperazin-1-yl)methyl)-N-(cyclopropylsulfonyl)-2-fluorobenzamide] | has hygroscopicity | 0.016 (≈ 32 µM) | – | 0.096 | >2.780 | 0.08 | 99.79 | 0.06 | 0.26 | 106.4 | 99.71 | 0.04 | 0.29 | 99.5 | 0.08 | 99.78 | 0.06 | 0.22 | 105.1 | 99.71 | moisture absorbed (DVS) ([1]; when RH is 85%): 2%; solubility at 4 h ([3]; buffer pH 4.5, pH 4.5, aqueous buffer, thermodynamic from solid, buffer pH 4.5, room temperature, read-out: Solubility (mg/mL) pH4.5): 0.002 mg/mL (≈ 4 µM); RRT (%) 0.54 [4, 6]: 0.13%; RRT (%) 0.54 [4, 7]: 0.09%; RRT (%) 0.86 [4, 7]: 0.07%; RRT (%) 0.54 [4, 8]: 0.09%; RRT (%) 1.05 ([4]; 60° C. 21 d): 0.04%; Total impurities (%) ([4]; 60° C. 21 d): 0.30%; RRT (%) 0.54 [4, 9]: 0.08%; RRT (%) 0.86 [4, 9]: 0.07%
